Our source for the melting point values is patent US7183415B2, “Quinoline compound” (Takeda Pharmaceutical Company Limited, priority 2001, dated 2007).

Regarding `Cc1cc2cc(CN3CCCC3)cnc2cc1NC(=O)c1ccc(-c2ccc(F)c(F)c2)cc1` [Example 216, 3′,4′-difluoro-N-[6-methyl-3-(1-pyrrolidinylmethyl)-7-quinolinyl][1,1′-biphenyl]-4-carboxamide], the melting point lay in the range of 220 to 223 °C.
The figure for `CCc1ccc(-c2ccc(C(=O)Nc3cc4ncc(CN5CCCC5)cc4cc3C)cc2)cc1` [Example 217, 4′-ethyl-N-[6-methyl-3-(1-pyrrolidinylmethyl)-7-quinolinyl][1,1′-biphenyl]-4-carboxamide] is 188 °C; for `CSc1ccc(-c2ccc(C(=O)Nc3cc4ncc(CN5CCCC5)cc4cc3C)cc2)cc1` [Example 219, N-[6-methyl-3-(1-pyrrolidinylmethyl)-7-quinolinyl]-4′-(methylthio)-[1,1′-biphenyl]-4-carboxamide] it is 198 °C; for `Cc1cc2cc(CN3CCCC3)cnc2cc1NC(=O)c1ccc(-c2ccc(Cl)s2)cc1` [Example 220, 4-(5-chlorothien-2-yl)-N-[6-methyl-3-(1-pyrrolidinylmethyl)-7-quinolinyl]benzamide] it is 216 °C.
The figure for `Cc1cc2cc(CN3CCCC3)cnc2cc1NC(=O)c1ccc(-c2ccc3ccccc3c2)cc1` [Example 222, N-[6-methyl-3-(1-pyrrolidinylmethyl)-7-quinolinyl]-4-(2-naphthyl)benzamide] is 194 °C; for `Cc1cc2cc(CN3CCCC3)cnc2cc1NC(=O)c1ccc(-c2ccsc2)cc1` [Example 223, N-[6-methyl-3-(1-pyrrolidinylmethyl)-7-quinolinyl]-4-thien-3-ylbenzamide] it is 187 °C.
The figure for `Cc1cc2cc(CN3CCCC3)cnc2cc1NC(=O)c1ccc(-c2ccco2)cc1` [Example 224, 4-(2-furyl)-N-[6-methyl-3-(1-pyrrolidinylmethyl)-7-quinolinyl]benzamide] is 154 °C.
For the compound `Cc1cc2cc(CN3CCCC3)cnc2cc1NC(=O)c1ccc(-c2ccccc2)cc1F` [Example 226, 3-fluoro-N-[6-methyl-3-(1-pyrrolidinylmethyl)-7-quinolinyl][1,1′-biphenyl]-4-carboxamide], the melting point lay within 180 to 183 °C.
Regarding `COc1ccc(-c2ccc(C(=O)Nc3cc4ncc(CN5CCCC5)cc4cc3C)c(F)c2)cc1` [Example 227, 3-fluoro-4′-methoxy-N-[6-methyl-3-(1-pyrrolidinylmethyl)-7-quinolinyl][1,1′-biphenyl]-4-carboxamide], the melting point lay within 187 to 190 °C.
In turn, `Cc1cc2cc(CN3CCCC3)cnc2cc1NC(=O)c1ccc(-c2ccc(F)cc2)cc1F` [Example 228, 3,4′-difluoro-N-[6-methyl-3-(1-pyrrolidinylmethyl)-7-quinolinyl][1,1′-biphenyl]-4-carboxamide] returned a melting point of 174 to 177 °C.
The figure for `Cc1ccc(-c2ccc(C(=O)Nc3cc4ncc(CN5CCCC5)cc4cc3C)c(F)c2)cc1` [Example 229, 3-fluoro-4′-methyl-N-[6-methyl-3-(1-pyrrolidinylmethyl)-7-quinolinyl][1,1′-biphenyl]-4-carboxamide] is 176 to 179 °C; for `Cc1cc2cc(CN3CCCC3)cnc2cc1NC(=O)c1ccc(-c2ccc(Cl)cc2)cc1F` [Example 230, 4′-chloro-3-fluoro-N-[6-methyl-3-(1-pyrrolidinylmethyl)-7-quinolinyl][1,1′-biphenyl]-4-carboxamide] it is 195 to 198 °C; for `Cc1cc2cc(CN3CCCC3)cnc2cc1NC(=O)c1ccc(-c2ccccc2)c(F)c1` [Example 232, 2-fluoro-N-[6-methyl-3-(1-pyrrolidinylmethyl)-7-quinolinyl][1,1′-biphenyl]-4-carboxamide] it is 167 to 170 °C.
In the case of `Cc1cc2cc(CN3CCCC3)cnc2cc1NC(=O)c1ccc(-c2ccc(F)cc2)c(F)c1` [Example 233, 2,4′-difluoro-N-[6-methyl-3-(1-pyrrolidinylmethyl)-7-quinolinyl][1,1′-biphenyl]-4-carboxamide], the melting point fell in the range of 163 to 166 °C.
Regarding `Cc1ccc(-c2ccc(C(=O)Nc3cc4ncc(CN5CCCC5)cc4cc3C)cc2F)cc1` [Example 234, 2-fluoro-4′-methyl-N-[6-methyl-3-(1-pyrrolidinylmethyl)-7-quinolinyl][1,1′-biphenyl]-4-carboxamide], the melting point was 175 to 178 °C.
As to `Cc1cc2cc(CN3CCCC3)cnc2cc1NC(=O)c1ccc(-c2ccc(Cl)cc2)c(F)c1` [Example 235, 4′-chloro-2-fluoro-N-[6-methyl-3-(1-pyrrolidinylmethyl)-7-quinolinyl][1,1′-biphenyl]-4-carboxamide], the melting point was 181 to 185 °C.
In the case of `COc1ccc(-c2ccc(C(=O)Nc3cc4ncc(CN5CCCC5)cc4cc3C)cc2F)cc1` [Example 236, 2-fluoro-4′-methoxy-N-[6-methyl-3-(1-pyrrolidinylmethyl)-7-quinolinyl][1,1′-biphenyl]-4-carboxamide], the melting point was 165 to 167 °C.
Compound `Cc1cc2cc(CN3CCCCCC3)cnc2cc1NC(=O)c1ccc(-c2ccc(Cl)cc2)cc1` [Example 238, N-[3-(1-azepanylmethyl)-6-methyl-7-quinolinyl]-4′-chloro[1,1′-biphenyl]-4-carboxamide] came in with a melting point of 204 °C.
`Cc1cc2cc(CN3CCCCCC3)cnc2cc1NC(=O)c1ccc(-c2cc3ccccc3o2)cc1` [Example 240, N-[3-(1-azepanylmethyl)-6-methyl-7-quinolinyl]-4-(1-benzofuran-2-yl)benzamide]: the melting point was 207 °C.
The figure for `Cc1cc2cc(CN3CCCCCC3)cnc2cc1NC(=O)c1ccc(-c2ccc(Cl)s2)cc1` [Example 241, N-[3-(1-azepanylmethyl)-6-methyl-7-quinolinyl]-4-(5-chlorothien-2-yl)benzamide] is 180 °C; for `Cc1cc2cc(CN3CCCCCC3)cnc2cc1NC(=O)c1ccc(-c2ccc(Cl)cc2)cc1F` [Example 243, N-[3-(1-azepanylmethyl)-6-methyl-7-quinolinyl]-4′-chloro-3-fluoro[1,1′-biphenyl]-4-carboxamide] it is 209 °C.
The figure for `Cc1cc2cc(CN3CCCCCC3)cnc2cc1NC(=O)c1ccc(-c2ccc(F)cc2)cc1F` [Example 244, N-[3-(1-azepanylmethyl)-6-methyl-7-quinolinyl]-3,4′-difluoro[1,1′-biphenyl]-4-carboxamide] is 170 °C; for `COc1ccc(-c2ccc(C(=O)Nc3cc4ncc(CN5CCCCCC5)cc4cc3C)c(F)c2)cc1` [Example 245, N-[3-(1-azepanylmethyl)-6-methyl-7-quinolinyl]-3-fluoro-4′-methoxy[1,1′-biphenyl]-4-carboxamide] it is 168 °C.
Turning to `Cc1cc2cc(CN3CCCCCC3)cnc2cc1NC(=O)c1ccc(-c2ccccc2)cc1F` [Example 246, N-[3-(1-azepanylmethyl)-6-methyl-7-quinolinyl]-3-fluoro[1,1′-biphenyl]-4-carboxamide], the melting point worked out at 151 °C.
For the compound `Cc1cc2cc(CN(C)C)cnc2cc1NC(=O)c1ccc(-c2ccc(F)cc2)cc1` [Example 248, N-{3-[(dimethylamino)methyl]-6-methyl-7-quinolinyl}-4′-fluoro[1,1′-biphenyl]-4-carboxamide], the melting point was 183 to 186 °C.
The figure for `CCN(CC)Cc1cnc2cc(NC(=O)c3ccc(-c4ccc(F)cc4)cc3)c(C)cc2c1` [Example 249, N-{3-[(diethylamino)methyl]-6-methyl-7-quinolinyl)-4′-fluoro[1,1′-biphenyl]-4-carboxamide] is 145 to 148 °C; for `Cc1cc2cc(CN3CCCCC3)cnc2cc1NC(=O)c1ccc(-c2ccc(F)cc2)cc1` [Example 250, 4′-fluoro-N-[6-methyl-3-(1-piperidinylmethyl)-7-quinolinyl][1,1′-biphenyl]-4-carboxamide] it is 185 to 188 °C.
The figure for `Cc1cc2cc(CN3CCCCCC3)cnc2cc1NC(=O)c1ccc(-c2ccc(F)cc2)cc1` [Example 251, N-[3-(1-azepanylmethyl)-6-methyl-7-quinolinyl]-4′-fluoro[1,1′-biphenyl]-4-carboxamide] is 170 to 174 °C.
The figure for `Cc1cc2cc(CN3CCOCC3)cnc2cc1NC(=O)c1ccc(-c2ccc(F)cc2)cc1` [Example 252, 4′-fluoro-N-[6-methyl-3-(4-morpholinylmethyl)-7-quinolinyl][1,1′-biphenyl]-4-carboxamide] is 153 to 158 °C; for `Cc1cc2cc(CN3CCC(CCC(N)=O)CC3)cnc2cc1NC(=O)c1ccc(-c2ccc(F)cc2)cc1` [Example 253, N-(3-{[4-(3-amino-3-oxopropyl)-1-piperidinyl]methyl}-6-methyl-7-quinolinyl)-4′-fluoro[1,1′-biphenyl]-4-carboxamide] it is 223 to 227 °C; for `CNC(=O)CCC1CCN(Cc2cnc3cc(NC(=O)c4ccc(-c5ccc(F)cc5)cc4)c(C)cc3c2)CC1` [Example 254, 4′-fluoro-N-[6-methyl-3-({4-[3-(methylamino)-3-oxopropyl]-1-piperidinyl}methyl)-7-quinolinyl][1,1′-biphenyl]-4-carboxamide] it is 207 to 211 °C.
In the case of `CCNC(=O)CCC1CCN(Cc2cnc3cc(NC(=O)c4ccc(-c5ccc(F)cc5)cc4)c(C)cc3c2)CC1` [Example 255, N-[3-({4-[3-(ethylamino)-3-oxopropyl]-1-piperidinyl}methyl)-6-methyl-7-quinolinyl]-4′-fluoro[1,1′-biphenyl]-4-carboxamide], the melting point is 227 to 230 °C.
The figure for `Cc1cc2cc(CN3CCC(CCC(=O)N(C)C)CC3)cnc2cc1NC(=O)c1ccc(-c2ccc(F)cc2)cc1` [Example 256, N-[3-({4-[3-(dimethylamino)-3-oxopropyl]-1-piperidinyl}methyl)-6-methyl-7-quinolinyl]-4′-fluoro[1,1′-biphenyl]-4-carboxamide] is 193 to 196 °C.
The figure for `CCN(CC)C(=O)CCC1CCN(Cc2cnc3cc(NC(=O)c4ccc(-c5ccc(F)cc5)cc4)c(C)cc3c2)CC1` [Example 257, N-[3-({4-[3-(diethylamino)-3-oxopropyl]-1-piperidinyl}methyl)-6-methyl-7-quinolinyl]-4′-fluoro[1,1′-biphenyl]-4-carboxamide] is 150 to 154 °C.

As usually defined, the melting point is the temperature of the solid-liquid transition.
